Assay results as given in patent publication US20220031657A1 (NOVARTIS AG, priority 2017, published 2022).
Marks after values point to notes of the source that are not given here.

Assays:
MCF-7 cell line = assay: Insulin driven proliferation assay; type: cell-based, human
MCF-7 xenograft [1] = assay: Orthotopic MCF-7 xenograft model in NSG mice; type: in vivo; settings: for anti-tumor effect in words: LSZ102 20 mg/kg QD, tamoxifen 60 mg/kg, fulvestrant 5 mg/mouse
HBRX1298 xenograft = assay: ER+ primary breast cancer model HBRX1298 in NSG mice; type: in vivo; settings: 5 mg/mouse SC QWeek, Day 63
MCF-7 xenograft [2] = assay: Dose fractionation study in mice with MCF-7 xenografts; type: in vivo; settings: 5 mg/mouse SC QWeek, Day 61
ERα = biological target: T1, ERα (Homo sapiens, UniProt P03372); assay: Immunoblot ERα protein quantification, MCF-7 parental cells; settings: 24 hr
T1 sequence (P03372 1-595): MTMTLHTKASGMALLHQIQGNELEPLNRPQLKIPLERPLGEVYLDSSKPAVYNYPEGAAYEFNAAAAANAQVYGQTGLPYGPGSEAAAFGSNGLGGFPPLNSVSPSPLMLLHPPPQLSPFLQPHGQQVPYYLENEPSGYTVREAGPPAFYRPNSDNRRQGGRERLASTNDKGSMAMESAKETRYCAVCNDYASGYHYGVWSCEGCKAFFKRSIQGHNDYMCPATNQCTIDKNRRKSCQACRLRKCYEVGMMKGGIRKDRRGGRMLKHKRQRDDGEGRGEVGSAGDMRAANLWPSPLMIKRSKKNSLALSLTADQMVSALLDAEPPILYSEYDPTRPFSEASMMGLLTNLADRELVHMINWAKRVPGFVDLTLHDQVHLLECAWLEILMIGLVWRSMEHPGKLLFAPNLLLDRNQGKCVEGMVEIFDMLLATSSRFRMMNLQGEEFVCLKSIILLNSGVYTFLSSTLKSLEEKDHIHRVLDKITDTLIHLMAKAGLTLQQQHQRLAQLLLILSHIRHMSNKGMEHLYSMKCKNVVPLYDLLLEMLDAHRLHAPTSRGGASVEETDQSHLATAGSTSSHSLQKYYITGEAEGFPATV

Row | ER protein levels (ERα) | Structure (SMILES) | effect in insulin driven proliferation assay (MCF-7 cell line) | ΔT/ΔC (%) (MCF-7 xenograft [1]; 5 mg/mouse SC QWeek, Day 48) | anti-tumor effect in words (MCF-7 xenograft [1]) | ΔT/ΔC (%) (HBRX1298 xenograft) | ΔT/ΔC (%) (MCF-7 xenograft [2])
1 | significantly reduce ER protein levels | C[C@]12CC[C@@H]3c4ccc(O)cc4C[C@@H](CCCCCCCCC[S+]([O-])CCCC(F)(F)C(F)(F)F)[C@H]3[C@@H]1CC[C@@H]2O (some centres unmarked) [Fulvestrant] | inhibited | 24* % | suppression of growth | 48* % | 18* %
2 | – | CC/C(=C(\c1ccccc1)c1ccc(OCCN(C)C)cc1)c1ccccc1 [Tamoxifen] | unaffected | – | tumor stasis | – | –
